Measured values from patent US7312358B2, “Pharmaceutically active sulfanilide derivatives” (Laboratoires Serono SA, priority 2000, dated 2007).

Legend:
[1] = biological target: T1, hOT-R (Homo sapiens, UniProt P30559); test: Inhibition of oxytocin mediated Ca2+-mobilization by FLIPR (HEK cells); type: cell-based; conditions: fluo-4, OT 40 nM
T1 construct: expressed in transfected cells; host or cells: HEK (Human Embryonic Kidney) cells
T1 sequence (P30559 1-389): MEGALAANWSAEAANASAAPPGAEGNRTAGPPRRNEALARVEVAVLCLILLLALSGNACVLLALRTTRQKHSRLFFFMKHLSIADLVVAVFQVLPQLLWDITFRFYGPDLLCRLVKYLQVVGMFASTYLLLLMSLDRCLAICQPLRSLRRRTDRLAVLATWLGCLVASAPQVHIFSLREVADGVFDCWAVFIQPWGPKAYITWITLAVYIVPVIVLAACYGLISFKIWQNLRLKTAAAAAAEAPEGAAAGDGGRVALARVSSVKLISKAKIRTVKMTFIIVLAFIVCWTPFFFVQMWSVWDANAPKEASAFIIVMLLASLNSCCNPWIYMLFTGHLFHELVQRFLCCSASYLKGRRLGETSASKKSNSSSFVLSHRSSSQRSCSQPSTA
Text: c) Functional Assay No. 1: Inhibition of Oxytocitn Mediated Ca^2+-Mobilization by FLIPR (Fluorescent Imaging Plate Reader)
FLIPR is a machine for fluorescence imaging using a laser that is capable of illuminating a 96-well plate and a means of simultaneously reading each well thus enabling rapid measurements on a large number of samples.
This assay intends to show the inhibition of the OT/OT-R mediated calcium mobilisation—being necessary to cause uterine contractions—by using test compounds of formula (I).
Preparing the plates: FLIPR-plates were pre-coated with PLL (Poly-L-Lysine) 10 μg/ml+0.1% gelatine to attach the HEK (Human Embryonic Kidney) cells for 30 min up to 2 days at 37° C. The cells were plated out into 96-well plates (60000 cells/well).
Labelling with fluo-4: […] fluo-4 (fluorescent marker) were dissolved in 20 μl pluronic acid (20% in DMSO). The dissolved fluo-4 was then diluted in 10 ml DMEM (Dubecco's Minimal Essential Medium-F12 medium without FCS (Fetal Calf Serum). The medium was removed from the plates, followed by one wash with DNEM-F12 medium. Now, 100 μl of the DMEM-F12 medium containing fluo-4 were added and the cells incubated for 1.5-2 h (HEK-cells). The cells now contain the fluorescent marker.
Buffer: 145 mM NaCl, 5 mM KCl, 1 mM MgCl2, 10 mM Hepes, 10 mM Glucose, EGTA (Ethylene-bis oxyethylene nitrilo tetraacetic acid). Adjust to pH 7.4.
Performance of the assay: A minimum of 80 μl/well of antagonists (5×) in the above buffer (1×) were prepared (96-well plates). The antagonists were added to the well-plates at different concentrations (30 μM, 10 μM, 1 μM, 300 nM, 100 nM, 10 nM, 1 nM, 100 pM, 10 pM).
OT is added at a concentration of 40 nM.
The fluorescent marker being sensitive to the amount of Ca^2+ mobilized within the cell may be quantified by the FLIPR machine.
The activities of the sulfanilide derivatives according to formula I were assessed using the above described in vitro biological assay. The values refer to the capacity of the example compounds according to formula I to effectively antagonize oxytocin-induced intracellular Ca^2+-mobilization mediated by the oxytocin receptor.

[2] = biological target: T2, hOT receptor (Homo sapiens, UniProt P30559); test: In vitro competition binding assay on hOT receptor with scintillating proximity assay; conditions: membranes from HEK293EBNA cells expressing hOT receptor; radiolabel [125I]-OVTA; SPA; read-out: Binding Affinity Human OT-R Ki
T2 construct: expressed in transfected cells; host or cells: HEK293EBNA cells (membranes)
T2 sequence (P30559 1-389): T1 sequence (P30559 1-389)
Method: a) In Vitro Competition Binding Assay on hOT Receptor with Scintillating Proximity Assay (Pharmaceutical Manufacturing International, 1992, p. 49-53 by Cook, N. D. et al)
This assays allows to determine the affinity of the test compounds for the OT receptor. Membranes from HEK293EBNA cells expressing the hOT receptor were resuspended in buffer containing 50 mM Tris-HCl, pH 7.4, 5 mM MgCl2 and 0.1% BSA (w/v). The membranes (2-4 μg) were mixed with 0.1 mg wheat-germ aglutinin (WGA) SPA bead (type A) and 0.2 nM of the radiolabel [^125I]-OVTA (OVTA being […] and is an analogue of OT for competition binding experiments). Non-specific binding was determined in the presence of 1 μM Oxytocin. The total assay volume was 100 μl. The plates (Corning (D NBS plate) were incubated at room temperature for 30 min and counted on a Mibrobeta plate counter. The tests compounds were used in concentrations of 30 μM, 10 μM, 1 μM, 300 nM, 100 nM, 10 nM, 1 nM, 100 pM, 10 pM. The competition binding data were analysed using the iterative, nonlinear, curve-fitting program, “Prism”.
The binding affinities to the oxytocin receptor of the sulfanilide derivatives claimed in the formula I were assessed using the above described in vitro biological assay. The values refer to the binding affinity (IC50; μM) of the example compounds according to formula I to the Oxytocin receptor. From the values shown in Table 1 it can be derived that said test compounds according to formula I do show a significant binding to the oxytocin receptor.

Row | IC50 [1] | melting point | Ki [2] | SMILES
1 | 45 nM | – | – | COc1ccc(N(CC(=O)Nc2cccc(Cl)c2C)S(=O)(=O)c2ccccc2)cc1 [2-[Benzenesulfonyl-(4-methoxy-phenyl)-amino]-N-(3-chloro-2-methyl-phenyl)-acetamide]
2 | 392 nM | – | – | COc1ccc(N(CC(=O)Nc2cccc(OC)c2)S(=O)(=O)c2ccccc2)cc1 [2-[Benzenesulfonyl-(4-methoxy-phenyl)-amino]-N-(3-methoxy-phenyl)-acetamide]
3 | 363 nM | – | – | COc1ccc(N(CC(=O)Nc2cccc3ccccc23)S(=O)(=O)c2ccccc2)cc1 [2-[Benzenesulfonyl-(4-methoxy-phenyl)-amino]-N-naphthalen-1-yl-acetamide]
4 | – | 109 to 110 °C | – | CCOc1ccc(S(=O)(=O)N(CC(=O)N/N=C2/C(=O)N(C)c3ccccc32)c2ccc(C)cc2)cc1 [Example 20, 4-ethoxy-N-{2-[2-(1-methyl-2-oxo-1,2-dihydro-3H-indol-3-ylidene)hydrazino]-2-oxoethyl}-N-(4-methylphenyl)benzenesulfonamide]
5 | – | 199 to 200 °C | – | CCOc1ccc(S(=O)(=O)N(CC(=O)N/N=C(/C)c2ccccc2O)c2ccc(C)cc2)cc1 [Example 22, 4-ethoxy-N-(2-{2-[1-(2-hydroxyphenyl)ethylidene]hydrazino}-2-oxoethyl)-N-(4-methylphenyl)benzenesulfonamide]
6 | – | 194 to 195 °C | – | CC(C)(C)c1ccc(S(=O)(=O)N(CC(=O)N/N=C2/C(=O)Nc3ccccc32)c2ccc(Cl)cc2)cc1 [Example 26, 4-tert-Butyl-N-(4-chlorophenyl)-N-{2-oxo-2-[(2E)-2-(2-oxo-1,2-dihydro-3H-indol-3-ylidene)hydrazino]ethyl}benzenesulfonamide]
7 | – | 132 to 133 °C | – | COc1ccc(S(=O)(=O)N(CC(=O)N/N=C2/C(=O)Nc3ccccc32)c2ccc(Cl)cc2)cc1OC [Example 27, N-(4-chlorophenyl)-3,4-dimethoxy-N-{2-oxo-2-[(2E)-2-(2-oxo-1,2-dihydro-3H-indol-3-ylidene)hydrazino]ethyl}benzenesulfonamide]
8 | – | 139 to 140 °C | – | Cc1ccc(N(CC(=O)N/N=C2/C(=O)Nc3ccccc32)S(=O)(=O)c2ccc(C(C)(C)C)cc2)cc1 [Example 28, 4-tert-Butyl-N-(4-methylphenyl)-N-{2-oxo-2-[(2E)-2-(2-oxo-1,2-dihydro-3H-indol-3-ylidene)hydrazino]ethyl}benzenesulfonamide]
9 | – | 198 to 199 °C | – | CCCc1ccc(S(=O)(=O)N(CC(=O)N/N=C2/C(=O)Nc3ccccc32)c2ccc(C)cc2)cc1 [Example 29, N-(4-methylphenyl)-N-{2-oxo-2-[(2E)-2-(2-oxo-12-dihydro-3H-indol-3-ylidene)hydrazino]ethyl}-4-propylbenzenesulfonamide]
10 | 102 nM | – | 0.4 nM | CCOc1ccc(S(=O)(=O)N(CC(=O)N/N=C2\C(=O)Nc3ccccc32)c2ccc(Cl)cc2)cc1 [Example 40, N-(4-chlorophenyl)-4-ethoxy-N-{2-oxo-2-[(2Z)-2-(2-oxo-1,2-dihydro-3H-indol-3-ylidene)hydrazino]ethyl}benzenesulfonamide]
11 | 6.9 nM | – | 2.9 nM | COCCOCCOc1ccc(S(=O)(=O)N(CC(=O)N/N=C2\C(=O)Nc3ccccc32)c2ccc(Cl)cc2)cc1 [Example 61, N-(4-chlorophenyl)-4-[2-(2-methoxyethoxy)ethoxy]-N-{2-oxo-2-[(2Z)-2-(2-oxo-1,2-dihydro-3H-indol-3-ylidene)hydrazino]ethyl}benzenesulfonamide]
12 | 8 nM | – | – | COCCOc1ccc(S(=O)(=O)N(CC(=O)N/N=C2\C(=O)Nc3ccccc32)c2ccc(Cl)cc2)cc1 [Example 62, N-(4-chlorophenyl)-4-(2-methoxyethoxy)-N-{2-oxo-2-[(2Z)-2-(2-oxo-1,2-dihydro-3H-indol-3-ylidene)hydrazino]ethyl}benzenesulfonamide]
13 | 17 nM | – | 2.8 nM | O=C(CN(c1ccc(Cl)cc1)S(=O)(=O)c1ccc(OCCCc2cccnc2)cc1)N/N=C1\C(=O)Nc2ccccc21 [Example 63, N-(4-chlorophenyl)-N-{2-oxo-2-[(2Z)-2-(2-oxo-1,2-dihydro-3H-indol-3-ylidene)hydrazino]ethyl}-4-[3-(3-pyridinyl)propoxy]benzenesulfonamide]
14 | 49 nM | – | 6.9 nM | O=C(CN(c1ccc(Cl)cc1)S(=O)(=O)c1ccc(NCCN2CCOCC2)cc1)N/N=C1\C(=O)Nc2ccccc21 [Example 65, N-(4-chlorophenyl)-4-{[2-(4-morpholinyl)ethyl]amino}-N-{2-oxo-2-[(2Z)-2-(2-oxo-1,2-dihydro-3H-indol-3-ylidene)hydrazino]ethyl}benzenesulfonamide]
15 | 19 nM | – | 3.4 nM | Cc1ccc(N(CC(=O)N/N=C2\C(=O)Nc3ccccc32)S(=O)(=O)c2ccc(CCC(N)=O)cc2)cc1 [Example 66, 3-{4-[(4-methyl{2-oxo-2-[(2Z)-2-(2-oxo-1,2-dihydro-3H-indol-3-ylidene)hydrazino]ethyl}anilino)sulfonyl]phenyl}propanamide]
16 | 393 nM | – | 108 nM | COC(=O)c1cccc2c1NC(=O)/C2=N\NC(=O)CN(c1ccc(Cl)cc1)S(=O)(=O)c1ccc(OCCCN(C)C)cc1 [Example 70, Methyl (3Z)-3-({[4-chloro({4-[3-(dimethylamino)propoxy]phenyl}sulfonyl)anilino]acetyl}hydrazono)-2-oxo-2,3-dihydro-1H-indole-7-carboxylate]
17 | 595 nM | – | – | Cc1ccc(N(CC(=O)NCc2ccc(Cl)cc2Cl)S(=O)(=O)c2ccc(C)cc2)cc1 [N-(2,4-Dichloro-benzyl)-2-[(toluene-4-sulfonyl)-p-tolyl-amino]-acetamide]

Row | SMILES | IC50 [1] | melting point | Ki [2]
18 | CCCCOc1ccc(S(=O)(=O)N(CC(=O)N/N=C2/C(=O)Nc3ccccc32)c2ccc(C)cc2)cc1 [Example 30, 4-Butoxy-N-(4-methylphenyl)-N-{2-oxo-2-[(2E)-2-(2-oxo-1.2-dihydro-3H-indol-3-ylidene)hydrazino]ethyl}benzenesulfonamide] | – | 111 to 112 °C | –
19 | CN(C)CCCNC(=O)CCc1ccc(S(=O)(=O)N(CC(=O)N/N=C2\C(=O)Nc3ccccc32)c2ccc(Cl)cc2)cc1 [Example 71, 3-{4-[(4-chloro{2-oxo-2-[(2Z)-2-(2-oxo-1,2-dihydro-3H-indol-3-ylidene)hydrazino]ethyl}anilino)sulfonyl]phenyll}-N-[3-(dimethylamino)propyl]propanamide] | 14 nM | – | 0.7 nM
